Laboratory results reported in PubChem BioAssay (NCI).
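1) Cells in 96-well plates. 2) Compound, 48 h, 5 concentrations. 3) Linear interpolation between surrounding doses. 4) Unreached endpoint = highest concentration. TGI: concentration producing complete growth inhibition.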

Columns and labels:
Test in all cases: DTP human tumour cell line panel, 48 h
SF-539 CNS = tested on: SF-539 CNS
RXF 393 renal = tested on: RXF 393 renal
SK-OV-3 ovarian = tested on: SK-OV-3 ovarian
HCT-116 colon = tested on: HCT-116 colon
CCRF-CEM leukemia = tested on: CCRF-CEM leukemia
SF-268 CNS = tested on: SF-268 CNS
MALME-3M melanoma = tested on: MALME-3M melanoma
UACC-62 melanoma = tested on: UACC-62 melanoma
ACHN renal = tested on: ACHN renal
NCI-H23 lung = tested on: NCI-H23 lung
SR leukemia = tested on: SR leukemia
RPMI-8226 leukemia = tested on: RPMI-8226 leukemia
DLD-1 colon = tested on: DLD-1 colon
HL-60(TB) leukemia = tested on: HL-60(TB) leukemia
NCI-H226 lung = tested on: NCI-H226 lung
KM20L2 colon = tested on: KM20L2 colon
SN12C renal = tested on: SN12C renal
SK-MEL-5 melanoma = tested on: SK-MEL-5 melanoma
COLO 205 colon = tested on: COLO 205 colon
SNB-75 CNS = tested on: SNB-75 CNS
OVCAR-8 ovarian = tested on: OVCAR-8 ovarian
MOLT-4 leukemia = tested on: MOLT-4 leukemia
NCI-H522 lung = tested on: NCI-H522 lung
UACC-257 melanoma = tested on: UACC-257 melanoma
XF 498 CNS = tested on: XF 498 CNS
SNB-78 CNS = tested on: SNB-78 CNS
786-0 renal = tested on: 786-0 renal
M19-MEL melanoma = tested on: M19-MEL melanoma
HCT-15 colon = tested on: HCT-15 colon
EKVX NSCLC = tested on: EKVX NSCLC
A549 NSCLC = tested on: A549 NSCLC
SK-MEL-28 melanoma = tested on: SK-MEL-28 melanoma
A498 renal = tested on: A498 renal
UO-31 renal = tested on: UO-31 renal
SF-295 CNS = tested on: SF-295 CNS
DMS 273 small cell lung = tested on: DMS 273 small cell lung
LXFL 529 NSCLC = tested on: LXFL 529 NSCLC
HT29 colon = tested on: HT29 colon
HOP-62 NSCLC = tested on: HOP-62 NSCLC
OVCAR-4 ovarian = tested on: OVCAR-4 ovarian
K-562 leukemia = tested on: K-562 leukemia
SW-620 colon = tested on: SW-620 colon
HOP-18 NSCLC = tested on: HOP-18 NSCLC
IGROV1 ovarian = tested on: IGROV1 ovarian
M14 melanoma = tested on: M14 melanoma
U251 CNS = tested on: U251 CNS
SNB-19 CNS = tested on: SNB-19 CNS
HOP-92 NSCLC = tested on: HOP-92 NSCLC
HCC-2998 colon = tested on: HCC-2998 colon
DMS 114 small cell lung = tested on: DMS 114 small cell lung
SK-MEL-2 melanoma = tested on: SK-MEL-2 melanoma
NCI-H460 lung = tested on: NCI-H460 lung
OVCAR-3 ovarian = tested on: OVCAR-3 ovarian
CAKI-1 renal = tested on: CAKI-1 renal
OVCAR-5 ovarian = tested on: OVCAR-5 ovarian
LOX IMVI melanoma = tested on: LOX IMVI melanoma
TK-10 renal = tested on: TK-10 renal
KM12 colon = tested on: KM12 colon

Measured: TGI

Nc1nc2c3nc(Nc4ccccc4)sc3nc(=O)n2c2sc(Nc3ccccc3)nc12
not listed: DMS 114 small cell lung | SK-MEL-2 melanoma | NCI-H460 lung | OVCAR-3 ovarian | CAKI-1 renal | OVCAR-5 ovarian | LOX IMVI melanoma | TK-10 renal | KM12 colon
> 100 µM: all other assays above

NC(N)=NS(=O)(=O)c1ccc(Nc2c3ccccc3nc3c(C(=O)Nc4ccc(S(N)(=O)=O)cc4)cccc23)cc1
78.5 µM: LXFL 529 NSCLC
69.8 µM: XF 498 CNS
68.7 µM: NCI-H522 lung
not listed: SR leukemia | NCI-H226 lung
> 100 µM: all other assays above

COC(=O)c1c2cccccc-2c(Cc2c3cccccc-3c(C(=O)OC)c2O)c1O
not listed: RXF 393 renal | LXFL 529 NSCLC
> 100 µM: all other assays above

N#Cc1cccc(/C=N/N=C(\N)NO)c1
52.8 µM: UACC-62 melanoma
not listed: RPMI-8226 leukemia | KM20L2 colon | SK-MEL-5 melanoma | MOLT-4 leukemia | HCC-2998 colon | DMS 114 small cell lung
> 100 µM: all other assays above
